Measurements reported in US9403774B2, “Guanidine and amine substituted tetrahydroisoquinoline compounds as factor xia inhibitors” (BRISTOL-MYERS SQUIBB COMPANY, priority 2012, dated 2016).
Structures can show the parent of a compound that is named as a salt.

Each compound was assayed against purified human Factor XIa (Homo sapiens (Human), UniProt P03951) (assay: Factor XIa assay (chromogenic substrate S-2366 hydrolysis)). Details: substrate S-2366, pH 7.4.
Format: biochemical
Method: The effectiveness of compounds of the present invention as inhibitors of the coagulation factors XIa, VIIa, IXa, Xa, XIIa, plasma kallikrein or thrombin, can be determined using a relevant purified serine protease, respectively, and an appropriate synthetic substrate. The rate of hydrolysis of the chromogenic or fluorogenic substrate by the relevant serine protease was measured both in the absence and presence of compounds of the present invention. […] A decrease in the rate of absorbance or fluorescence change in the presence of inhibitor is indicative of enzyme inhibition. Such methods are known to one skilled in the art. The results of this assay are expressed as the inhibitory constant, Ki.
Factor XIa determinations were made in 50 mM HEPES buffer at pH 7.4 containing 145 mM NaCl, 5 mM KCl, and 0.1% PEG 8000 (polyethylene glycol; JT Baker or Fisher Scientific). Determinations were made using purified human Factor XIa at a final concentration of 75-200 pM (Haematologic Technologies) and the synthetic substrate S-2366 (pyroGlu-Pro-Arg-pNA; CHROMOGENIX® or AnaSpec) at a concentration of 0.0002-0.001 M.
The Michaelis constant, Km, for substrate hydrolysis by each protease, was determined at 25° C. using the method of Lineweaver and Burk. Values of Ki were determined by allowing the protease to react with the substrate in the presence of the inhibitor. Reactions were allowed to go for periods of 20-180 minutes (depending on the protease) and the velocities (rate of absorbance or fluorescence change versus time) were measured. The following relationships were used to calculate Ki values: (vo−vs)/vs=I/(Ki(1+S/Km)) for a competitive inhibitor with one binding site; or vs/vo=A+((B−A)/1+((IC50/(I)n))); and Ki═IC50/(1+S/Km) for a competitive inhibitor where: […]

Sequence of purified human Factor XIa (P03951 388-625): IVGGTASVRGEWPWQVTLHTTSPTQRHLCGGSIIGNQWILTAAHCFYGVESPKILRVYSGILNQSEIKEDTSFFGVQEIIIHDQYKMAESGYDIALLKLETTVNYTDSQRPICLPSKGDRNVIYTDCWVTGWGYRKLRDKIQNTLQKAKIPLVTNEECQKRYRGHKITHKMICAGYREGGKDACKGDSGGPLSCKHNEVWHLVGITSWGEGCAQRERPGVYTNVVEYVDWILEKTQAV
Sequence of purified human Factor XIa (P03951 19-387 partner): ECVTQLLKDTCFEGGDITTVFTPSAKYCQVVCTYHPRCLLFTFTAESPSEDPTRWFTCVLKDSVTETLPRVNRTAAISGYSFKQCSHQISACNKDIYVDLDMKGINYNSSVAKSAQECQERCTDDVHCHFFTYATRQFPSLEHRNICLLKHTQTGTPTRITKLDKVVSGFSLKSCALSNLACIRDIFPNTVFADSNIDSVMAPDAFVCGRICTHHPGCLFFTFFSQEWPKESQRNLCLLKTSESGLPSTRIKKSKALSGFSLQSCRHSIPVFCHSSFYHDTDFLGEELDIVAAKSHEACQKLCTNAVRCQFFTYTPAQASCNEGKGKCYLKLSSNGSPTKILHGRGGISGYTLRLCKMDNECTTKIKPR

Ki	SMILES
< 0.005 µM	CNC(=O)c1ccc(-c2cccc3c2CCN(C(=O)[C@H]2CC[C@H](CN)CC2)C3C(=O)Nc2ccc(C(=O)O)cc2)cc1 (stereo partly drawn) [Example 4, 4-(2-((1r,4r)-4-(aminomethyl)cyclohexanecarbonyl)-5-(4-(methylcarbamoyl)phenyl)-1,2,3,4-tetrahydroisoquinoline-1-carboxamido)benzoic acid, TFA Salt]
0.0483 µM	CC1(C)Cc2c(-c3ccc4ncccc4c3)cccc2C(C(=O)Nc2ccc(C(=O)O)cc2)N1C(=O)[C@H]1CC[C@H](CN)CC1 (stereo partly drawn) [Example 26]
0.0846 µM	NC[C@H]1CC[C@H](C(=O)N2CCc3ccccc3[C@H]2C(=O)Nc2ccc(C(=O)O)cc2)CC1 [Example 32, 4-((S)-2-((1r,4S)-4-(aminomethyl)cyclohexanecarbonyl)-1,2,3,4-tetrahydroisoquinoline-1-carboxamido)benzoic acid, TFA salt]

Second part, the compound before the results:

SMILES	Ki
COC1CCN(c2cccc3c2CCN(C(=O)c2ccc(N)cc2)C3C(=O)Nc2ccc(C(=O)O)cc2)CC1 (stereo not drawn) [Example 1, 4-(2-(4-aminobenzoyl)-5-(4-methoxypiperidin-1-yl)-1,2,3,4-tetrahydroisoquinoline-1-carboxamido)benzoic acid, bis-TFA salt]	0.542 µM
CC1(C)Cc2c(-c3ccc4c(c3)OCO4)cccc2C(C(=O)Nc2ccc(C(=O)O)cc2)N1C(=O)[C@H]1CC[C@H](CN)CC1 (stereo partly drawn) [Example 16]	0.166 µM
CC1(C)Cc2c(-c3cc4ccccc4s3)cccc2C(C(=O)Nc2ccc(C(=O)O)cc2)N1C(=O)[C@H]1CC[C@H](CN)CC1 (stereo partly drawn) [Example 20]	0.781 µM
